Results on 8 substances are retold here after US10399932B2, “Inhibitors of indoleamine-2,3-dioxygenase for the treatment of cancer” (BRISTOL-MYERS SQUIBB COMPANY, priority 2015, dated 2019).

Some results are limits rather than exact numbers.

In the assay the target is human IDO1 (Homo sapiens, UniProt P14902). As to the kind of experiment: Assessment of human IDO-1 inhibitory activity in Hela cells (Interferon-gamma activated, Ehrlich reagent, absorbance at 490 nm). It is filed as cell-based. More on the design: endogenous in cells; host or cells: HeLa cells stimulated with interferon-gamma. To be noted: 18 hours. The method in brief: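 HeLa cells were preincubated with compound for 1 h at 37 °C, then stimulated with human IFN-γ (10 ng/ml final) or murine IFN-γ (5 ng/ml final) for 18 h. Kynurenine was read after TCA (3% final, 50 °C for 30 min) and Ehrlich reagent at A490. For IC50, unstimulated wells were set as 100% inhibition and IFN-γ alone as 0%.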
Chain of human IDO1 (P14902 whole entry): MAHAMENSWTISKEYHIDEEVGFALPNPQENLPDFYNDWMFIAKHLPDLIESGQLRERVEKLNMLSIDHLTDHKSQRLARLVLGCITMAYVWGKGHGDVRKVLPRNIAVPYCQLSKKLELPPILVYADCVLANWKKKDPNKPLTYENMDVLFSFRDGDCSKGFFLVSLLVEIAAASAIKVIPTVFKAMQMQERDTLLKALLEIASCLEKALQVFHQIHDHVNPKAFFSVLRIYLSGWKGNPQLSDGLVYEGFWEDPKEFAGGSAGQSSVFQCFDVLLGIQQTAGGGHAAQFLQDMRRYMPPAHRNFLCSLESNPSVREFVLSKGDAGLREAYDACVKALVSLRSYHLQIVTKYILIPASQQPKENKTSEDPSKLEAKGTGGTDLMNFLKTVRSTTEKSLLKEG
The IC50 is the concentration that inhibits the measured activity by half. In turn, “(R)-3-(4-((1,1-dioxidotetrahydro-2H-thiopyran-4-yl)(ethyl)amino)-3-((2-ethoxypyrimidin-5-yl)amino)phenyl)-4-isopropoxybutanoic acid [Example 333]” yielded an IC50 of more than 50 nM.
As for “(R)-3-(4-((1,1-dioxidotetrahydro-2H-thiopyran-4-yl)(ethyl)amino)-3-((2-methoxypyrimidin-5-yl)amino)phenyl)-4-isopropoxybutanoic acid [Example 332]”, the figure is more than 50 nM; as for “(R)-3-(4-((1,1-dioxidotetrahydro-2H-thiopyran-4-yl)(ethyl)amino)-3-((4-fluorophenyl)amino)phenyl)-4-isopropoxybutanoic acid [Example 331]”, less than 50 nM.
On to “(R)-3-(4-(ethyl(tetrahydro-2H-pyran-4-yl)amino)-3-((2-(tetrahydro-2H-pyran-4-yl)pyrimidin-5-yl)amino)phenyl)-4-methoxybutanoic acid [Example 403]”, for which the IC50 was more than 50 nM.
For the substance “(S)-3-(3-((4-chlorophenyl)amino)-4-((1,1-dioxidotetrahydro-2H-thiopyran-4-yl)(ethyl)amino)phenyl)-4-isopropoxybutanoic acid [Example 325]”, the IC50 was less than 5 nM.
The figure for “(S)-3-(4-((1,1-dioxidotetrahydro-2H-thiopyran-4-yl)(ethyl)amino)-3-((2-ethoxypyrimidin-5-yl)amino)phenyl)-4-isopropoxybutanoic acid [Example 328]” is more than 50 nM; for “(S)-3-(4-((1,1-dioxidotetrahydro-2H-thiopyran-4-yl)(ethyl)amino)-3-((2-methoxypyrimidin-5-yl)amino)phenyl)-4-isopropoxybutanoic acid [Example 327]” it is more than 50 nM; for “(S)-3-(4-(ethyl(tetrahydro-2H-pyran-4-yl)amino)-3-((2-(tetrahydro-2H-pyran-4-yl)pyrimidin-5-yl)amino)phenyl)-4-methoxybutanoic acid [Example 366]” it is more than 50 nM.
